This is an account of results in paper PMC12040169 (PLOS Biology, 2025).

This data set is described as follows: in vitro. Conditions: human, hela cells, % viability.

Each structure is given as a SMILES string.

One may read the viability as a read-out of living cells in per cent, often relative to untreated cells.

As for `Cc1ccc(S(=O)(=O)NC[C@H]2CC[C@H](C(=O)O)CC2)cc1` [CBK286706], the viability at 28.5 h, 10 µM is 96.1%.

On to `Cc1cc2c(cc1Cl)C(=O)CC1(CCNCC1)O2` [CBK282715], for which the viability at 28.5 h, 10 µM was determined as 83.1%.

For the compound `O=C(NCCCc1ccccc1)c1cccc(S(=O)(=O)N2CCCC2)c1` [CBK305024], the viability at 28.5 h, 10 µM was found to be 96.1%.

Take `CC1(C)Cc2c(cnn2-c2ccc(F)cc2)C(N)C1` (centres unmarked) [CBK288200]: the viability at 28.5 h, 10 µM worked out at 91.9%.

`Cc1ccc(S(=O)(=O)NCC2CCC(C(=O)Oc3ccc4ccc(=O)oc4c3)CC2)cc1` (centres unmarked) [CBK093519]: the viability at 28.5 h, 10 µM came to 87.9%.

As to `CCOC(=O)c1c(C)n(-c2ccc(OC)cc2)c2ccc(O)c(CN(C)C)c12` [CBK261609C], the viability at 28.5 h, 10 µM came out at 88%.

As to `CN(Cc1nc(-c2cccnc2)no1)S(=O)(=O)c1ccc2ccccc2c1` [CBK267385], the viability at 28.5 h, 10 µM was found to be 87.2%.

With `O=C(NC1Cc2ccccc2C1)c1cnccc1C(F)(F)F` [CBK200353], the viability at 28.5 h, 10 µM was 98.6%.

`O=C(N/N=C\c1cccc(O)c1)C(=O)N/N=C/c1cccc(O)c1` [CBK261962]: the viability at 28.5 h, 10 µM was found to be 87.6%.

For the compound `Cc1cc([N+](=O)[O-])cc2c1NC(=O)C2(O)N1CCOCC1` (centres unmarked) [CBK262475], the viability at 28.5 h, 10 µM was 91.7%.

As to `CC(C)NC(=O)C1CC2CCC1(C)C[C@]21NC(=O)c2ccccc2N1` (some centres unmarked) [CBK284444], the viability at 28.5 h, 10 µM was 88.7%.

Take `COc1ccc(-c2noc(CSc3nnc(-c4ccncc4)n3C)n2)cc1` [CBK268245]: the viability at 28.5 h, 10 µM was determined as 96.8%.

For `S=c1[nH]nc(COc2ccccc2)n1C1CCCCC1` [CBK014411], the viability at 28.5 h, 10 µM stood at 96.2%.

On to `S=C(Nc1ccccc1)NC1C2CN3CCN(C2)CC1(c1ccccc1)C3` (centres unmarked) [CBK261936], for which the viability at 28.5 h, 10 µM was determined as 88.6%.

For the compound `CC(C)(C)C1=CC2=NC3(CCCCCC3)[C@@H]3C[C@@H](O)[C@@H](O)[C@@H]3N2O1` [CBK303252], the viability at 28.5 h, 10 µM is 91.9%.

With `Cc1cc2occ(CC(=O)NCc3cc(C4CC4)[nH]n3)c2cc1C` [CBK282576], the viability at 28.5 h, 10 µM was 87.1%.

On to `Clc1ccc(CN2CCC(Oc3cncc(OCc4cccnc4)n3)C2)cc1` (centres unmarked) [CBK084451], for which the viability at 28.5 h, 10 µM was 104%.

`CC(C)OCc1ccc(C(=O)N2CCC(C(=O)O)CC2)cc1` [CBK297141]: the viability at 28.5 h, 10 µM came out at 83.2%.

As to `COc1cccc(NC(=O)c2cnc(-c3ccc(Cl)cc3)c(-c3ccco3)c2)c1OC` [CBK037428], the viability at 28.5 h, 10 µM came out at 103%.

For `Cn1c(CNc2ccccc2[N+](=O)[O-])c(C#N)c2ccccc21` [CBK115324], the viability at 28.5 h, 10 µM worked out at 98.1%.

Regarding `O=C(CSc1nnc(CCc2ccccc2)n1-c1ccc(Cl)cc1)c1ccccc1` [CBK266277], the viability at 28.5 h, 10 µM amounted to 88.9%.

`Cc1ccccc1OC(C)C(=O)Nc1ccccc1C(=O)N1CCOCC1` (centres unmarked) [CBK269753]: the viability at 28.5 h, 10 µM came out at 103%.

On to `Cc1cc(C)nc(N2CCC(CC(=O)NCCOc3cccc(F)c3)CC2)n1` [CBK285996], for which the viability at 28.5 h, 10 µM was determined as 112%.

On to `O=C(O)c1ccc(CN2CCOCC2)o1` [CBK261426C], for which the viability at 28.5 h, 10 µM is 90.7%.

`O=C(O)c1csc(S(=O)(=O)Nc2ccccc2C(=O)Nc2ccc3c(c2)OCO3)c1` [CBK295655]: the viability at 28.5 h, 10 µM amounted to 102%.

Consider `COc1ccc(-c2cnc(N3CCOCC3)c3nccn23)cc1` [CBK091285], for which the viability at 28.5 h, 10 µM is 87.2%.

As for `c1ccc(CNCc2nc(-c3ccccc3)no2)cc1` [CBK024404], the viability at 28.5 h, 10 µM was 99.1%.

As to `OC1(c2ccc(F)cc2)COC2(CCNCC2)C1` (centres unmarked) [CBK284214], the viability at 28.5 h, 10 µM worked out at 93.6%.

Turning to `O=C(O)c1ccccc1C(=O)NCCC1=CCCCC1` [CBK287113], the viability at 28.5 h, 10 µM came out at 87.8%.

For `O=C(CCC1CCCC1)n1ccn(-c2ccc3c(c2)OCO3)c1=O` [CBK106631], the viability at 28.5 h, 10 µM amounted to 101%.

Turning to `COCCOCCCN1CCC2(CC1)NC(=O)Cc1ccc(C)cc12` [CBK040222], the viability at 28.5 h, 10 µM was found to be 109%.

In the case of `CC1CCN(S(=O)(=O)c2ccc(NC(=O)c3cccc(NC(=O)C(C)C)c3)cc2)CC1` [CBK265653], the viability at 28.5 h, 10 µM was found to be 88%.

As for `C=CCNC(=O)CN1CCC(c2ccc(OC)cc2)CC1` [CBK283560], the viability at 28.5 h, 10 µM turned out to be 106%.

Regarding `COc1ccc([C@@]23CC[C@@H](NC(=O)Nc4cccc(Cl)c4)C[C@@H]2CN(C)C3)cc1OC` [CBK081375T], the viability at 28.5 h, 10 µM is 96.8%.

With `CCOC(=O)NC(=O)CSc1nnc(C2COc3ccccc3O2)n1-c1ccccc1` (centres unmarked) [CBK297884], the viability at 28.5 h, 10 µM came out at 88.9%.

For `CCOC(=O)c1ccc(S(=O)(=O)N2CCCCC2)cc1` [CBK069738], the viability at 28.5 h, 10 µM is 106%.

As to `CC1CCN(S(=O)(=O)c2ccc(S(=O)(=O)Nc3ncnn3C)cc2)CC1` [CBK306470], the viability at 28.5 h, 10 µM is 92.3%.

`CCOc1cccc(-c2cncc(NCCO)n2)c1` [CBK066075]: the viability at 28.5 h, 10 µM is 81%.

`Cc1occc1-c1nnc(SCC(=O)c2ccc3c(c2)OCCO3)o1` [CBK268773]: the viability at 28.5 h, 10 µM is 83.5%.

In the case of `Clc1cccc(CNc2cncc(-c3cccnc3)n2)c1` [CBK065283], the viability at 28.5 h, 10 µM turned out to be 104%.

For the compound `CCCOc1ccc(Cc2nnn[nH]2)cc1` [CBK262590], the viability at 28.5 h, 10 µM amounted to 83.9%.

Take `Cc1cc(C)n(CC(=O)Nc2ccccc2-n2ccnc2)n1` [CBK283079]: the viability at 28.5 h, 10 µM is 101%.

In the case of `Nc1ncc(-c2ccc(OC(F)(F)F)cc2)nc1-c1ccc(O)cc1` [CBK122506], the viability at 28.5 h, 10 µM came to 95.8%.

As to `COCCn1c(CO)nnc1[C@H]1C[C@@H](NC(=O)c2cc(C)ccc2Cl)C1` [CBK306564], the viability at 28.5 h, 10 µM was 81.2%.

Take `CCn1cc(C(=O)Nc2nccs2)c(=O)c2ccc(C)nc21` [CBK307628]: the viability at 28.5 h, 10 µM was 78.3%.

Take `CCc1ccc(CNC(=O)NC2CCCc3c2cnn3CCO)s1` (centres unmarked) [CBK305747]: the viability at 28.5 h, 10 µM is 84.4%.

In the case of `CCCS(=O)(=O)NC[C@H]1C[C@@H]2CCN1C[C@@H]2c1cc(-c2cccs2)nn1C` [CBK289101], the viability at 28.5 h, 10 µM worked out at 98.4%.

In the case of `O=[N+]([O-])c1cccc(Cn2c(CO)nc3ccccc32)c1` [CBK297515], the viability at 28.5 h, 10 µM was found to be 95.4%.

On to `Cc1nc(C2CCCN2C(=O)CC2CCCC2)nc2c1CCCN2Cc1ccccn1` (centres unmarked) [CBK286252], for which the viability at 28.5 h, 10 µM is 105%.

For the compound `CC(C)OC(=O)Cc1nc(CN2CCc3sccc3C2C)cs1` (centres unmarked) [CBK305284], the viability at 28.5 h, 10 µM was 85.3%.

For `O=[N+]([O-])c1cccc(NS(=O)(=O)c2ccc(Cl)c(Cl)c2)c1` [CBK044396], the viability at 28.5 h, 10 µM came to 78.5%.

Take `CCN(CC)CCNC1=Nc2ccccc2CCC1` [CBK263520]: the viability at 28.5 h, 10 µM was 94.7%.

As to `Cc1ccc(S(=O)(=O)N2CCCC(C(=O)O)C2)cc1` (centres unmarked) [CBK100948], the viability at 28.5 h, 10 µM amounted to 88.6%.

With `COc1ccc2c(c1)N1CCCN=C1N2C` [CBK011358C], the viability at 28.5 h, 10 µM was determined as 90.8%.

With `CC(=O)N1Cc2cc(C)ccc2OC2(CCN(CC3CC3)CC2)C1` [CBK285021], the viability at 28.5 h, 10 µM was 95%.

Consider `NS(=O)(=O)c1ccc(C(=O)N2CCC3(CCN(C(=O)Cc4c[nH]c5ccccc45)C3)C2)cc1` (centres unmarked) [CBK131425], for which the viability at 28.5 h, 10 µM stood at 100%.

Turning to `COc1ccc(-c2[nH]c(=S)ncc2-c2ccccc2)c(O)c1` [CBK288447], the viability at 28.5 h, 10 µM is 91.5%.

Take `COC(=O)CCC(=O)Nc1snnc1-c1ccc(Cl)cc1` [CBK153241]: the viability at 28.5 h, 10 µM is 99.3%.

With `O=C(O)Cc1ccc(-c2ccccc2)cc1` [CBK011660], the viability at 28.5 h, 10 µM stood at 104%.

For `CCn1cc(CN2CCC(Oc3cc(C)ccc3F)(C(=O)O)CC2)cn1` [CBK306644], the viability at 28.5 h, 10 µM came out at 96.1%.

Consider `CC1=Nc2ccc(Cl)cc2C(C)(C)O1` [CBK022763C], for which the viability at 28.5 h, 10 µM was determined as 107%.

Turning to `CCC(NC(=O)c1csc2c1CCCC2)c1ccccc1` (centres unmarked) [CBK059006], the viability at 28.5 h, 10 µM amounted to 108%.

As for `NS(=O)(=O)c1ccc(Cn2c(=O)[nH]c3ncc(-c4ccco4)nc32)cc1` [CBK064948], the viability at 28.5 h, 10 µM turned out to be 96.8%.

Consider `CCN1CCN(C(=O)COc2cccnc2)CC1` [CBK200378], for which the viability at 28.5 h, 10 µM stood at 94.8%.

Consider `COc1cc(NC(=O)Cc2cccc3ccccc23)c(C(=O)O)cc1OC` [CBK268206], for which the viability at 28.5 h, 10 µM was found to be 99.9%.

Regarding `COC(=O)c1ccc(Oc2nc(OC)cc(OC)n2)cc1` [CBK092221], the viability at 28.5 h, 10 µM is 113%.

Regarding `CC(C)(C)OC(=O)N1CCC(OCc2cn(-c3ccc(S(C)(=O)=O)cc3)nn2)CC1` [CBK149478], the viability at 28.5 h, 10 µM came out at 98.1%.

For `O=C1N[C@H]2CCCN(C(=O)c3cc(=O)[nH]c(=O)[nH]3)[C@H]2C/C=C/CCOc2ccccc21` [CBK292065], the viability at 28.5 h, 10 µM was 107%.

Consider `O=C(Nc1ccc2c(c1)OCCO2)c1cc(S(=O)(=O)N2CCCCC2)c(Cl)cc1Cl` [CBK265790], for which the viability at 28.5 h, 10 µM came out at 90%.

With `O[C@@H]1CN(Cc2ccc(F)c(F)c2)CC[C@H]1NC1CC1` [CBK283319], the viability at 28.5 h, 10 µM was determined as 94%.

With `O=C(CCc1ccncc1)N1CCOC(c2ccc(F)cc2F)C1` (centres unmarked) [CBK304692], the viability at 28.5 h, 10 µM is 98.3%.

In the case of `O=C(c1ccccc1)c1ccc2n1CCC2C(=O)N1CCN(c2ccccc2)CC1` (centres unmarked) [CBK300536], the viability at 28.5 h, 10 µM turned out to be 115%.

Consider `Nc1cc(=O)[nH]c(=O)n1Cc1ccc(Cl)cc1` [CBK288002], for which the viability at 28.5 h, 10 µM is 112%.

Turning to `COc1ccc(-c2cnc3[nH]c(=O)n(Cc4cccs4)c3n2)c(OC)c1OC` [CBK064716], the viability at 28.5 h, 10 µM amounted to 97.2%.

Consider `O=S(=O)(Nc1cc(F)cc(C(F)(F)F)c1)c1cc2c(N3CCNCC3)nccc2s1` [CBK038102C], for which the viability at 28.5 h, 10 µM came to 95.5%.

Regarding `COc1ccccc1CN(Cc1cccnc1)C(=O)CCN1CCCO1` [CBK306959], the viability at 28.5 h, 10 µM is 98.1%.

`CCN(CC)CCN1CCN(c2cc(-c3cc(C(F)(F)F)cc(C(F)(F)F)c3)ncn2)CC1` [CBK091195]: the viability at 28.5 h, 10 µM worked out at 94%.

On to `COCC(=O)N1CC[C@@H]2[C@H]1C(=O)N(c1ccc(OC)cc1)C(=O)N2Cc1ccccc1` [CBK289280], for which the viability at 28.5 h, 10 µM came to 92.9%.

Turning to `CNC(=O)c1ccc(-n2ccnc2)c(-n2cccc2)c1` [CBK282461], the viability at 28.5 h, 10 µM was 80.8%.

On to `O=C(NCCc1cccs1)N1CCC2(CC1)OCc1cc(F)ccc1O2` [CBK060769], for which, where the note is “bulk resorufin, single well”, the viability at 28.5 h, 10 µM was 98.3%.
